Results reported in patent US4368267A, “Epoxidation of lower α-olefins” (priority 1980, dated 1983).

Test system: Methylosinus trichosporium OB3b (NRRL B-11,196)
Assay: Stoichiometry of the epoxidation of propylene by a cell-suspension
Assay type: cell-based
Settings: 3.6 μmoles propylene; 3.1 mg protein; 3 min.
Protocol: As a comparison the stoichiometry of the epoxidation of propylene by a cell-suspension of Methylosinus trichosporium OB3b (NRRL B-11,196) was determined as follows. The reaction mixture (3.0 ml.) contained 0.05 M sodium phosphate buffer, pH 7.0 and 3.6 μmoles of propylene. The reaction was initiated by the injection of 0.1 ml. of cell-suspension (3.1 mg protein). A correction was made for the endogenous consumption of oxygen. The amount of oxygen consumed during the reaction (3 min.) was determined polarographically with a Clark oxygen electrode. The propylene consumed and the propylene oxide formed was estimated by gas chromatography. The propylene consumed was 0.29 μmoles, the oxygen consumed was 0.30 μmoles and the propylene oxide formed was 0.28 μmoles.

With `C=CC` [Propylene] the Propylene Oxide Formed was 0.28 µmol, the oxygen consumed was 0.30 µmol and the propylene consumed was 0.29 µmol.
